In patent US4800201A, “1,4-thiazine derivative, and cardiotonic agent comprising it as effective component” (Zenyaku Kogyo Kabushiki Kaisha, priority 1984, dated 1989):

Legend:
[1] = test system: isolated left atrium of guinea pig; test: Effect on isolated left atrium of guinea pig (Pharmacological Test 1, Table 1); design: species or system guinea pig (male Hartley); settings: 1×10^-4 mole, electrically stimulated 0.5 cps, 30° to 32° C.
Description: Effect on isolated left atrium of guinea pig was tested according to the method described in Basic Lectures of Medicine Development, Volume V, Pharmacological Test Methods, Part 2, page 534 (1971) published by Chizin Shokan Kabushiki Kaisha in Japan. A 7-weeks-old male Hartley guinea pig (having body weight of about 350 g) was stunned by a blow on the head. The heart was cut out, and the left atrium was taken out in Krebs-Henseleit solution (prepared by adding distilled water for injection to 6.92 g of sodium chloride, 0.35 g of potassium chloride, 0.28 g of calcium chloride, 0.29 g of magnesium sulfate, 0.16 g of mono-basic potassium phosphate, 2.1 g of sodium bicarbonate and 1.8 g of glucose so that the total amount was 1000 ml) which was sufficiently bubbled with oxygen gas. The isolated left atrium was suspended in Magnus' bath at 30° to 32° C. and isometric contraction was recorded by the pen-writing oscillograph through the strain pressure amplifier connected to the force displacement pickup.
The atrium was stimulated electrically at 0.5 cps for 5 msec under a voltage of 20% above threshold. The nutritive liquid was Krebs-Henseleit solution through which 95% oxygen gas and 5% carbon dioxide was blown. Effect of each sample was tested 60 to 90 minutes after stimulation at which the generated tension became stable. In this test, corresponding concentration of each sample was 1×10^-4 mole.

isolated auricule = test: Effect on isolated auricule (Pharmacological Test 2, Table 2); design: species or system guinea pig (male Hartley); settings: 3×10^-4 mole, 30°±1° C., recording 5 minutes; for activation at 300 µM: Cavia porcellus, 5 min, read-out: Increase in heart rate
Description: Effect on isolated auricule was tested according to the method of L. J. Mcleod described in Pharmacological Experiments on Intact Preparations, pages 112-115 (1970). A 7-weeks-old male Hartley guinea pig (having body weight of about 350 g) was killed by a blow on the head. The heart was cut out, and all the tissues except for the auricule were cut away in Ringer-Locke solution (prepared by adding distilled water for injection to 9.0 g of sodium chloride, 0.25 g of potassium chloride, 0.15 g of calcium chloride and 1.0 g of glucose so that the total amount was 1000 ml). One of cotton threads, which were tied to each tip of the auricule, is attached to Magnus' bath and the other to the force displacement pickup. The Magnus' bath was maintained at 30°±1° C. through which oxygen gas was bubbled. When the rhythmic movement and contraction of cardiac muscle became constant, recording by the pen-writing oscillograph was started. After 1 minute, sample compound was injected and recording was conducted for 5 minutes. After completion of recording, the isolated auricule was washed with Ringer-Locke solution until the rhythmic movement and contraction of cardiac muscle became constant. After 30 minutes, recording by the pen-writing oscillograph was started again. In this test, corresponding concentration of each sample was 3×10^-4 mole.

[2] = Acute toxicity, Litchfield-Wilcoxon method (Pharmacological Test 3, Table 3); settings: mouse, in vivo, ip; intraperitoneal injection, 6-weeks-old male ddY mice
Description: The acute toxicity was determined according to the Litchfield-Wilcoxon method, J. Pharm. Exp. Ther., 96, 99 […] using 6-weeks-old male ddY mice (having body weight of 19-24 g) while administrating the sample compound in intraperitonial injection.

Row | SMILES | Tension increment [1] [mg] | Tension increment (isolated auricule) [mg] | activation at 300 µM (isolated auricule) [%] | LD50 [2] [mg/kg]
1 | CC1=C(c2ccncc2Cl)SCC(=O)N1 | 426 ± 56 | – | – | –
2 | CC1=C(c2ccnc3ccccc23)SCC(=O)N1 [drawing 25] | – | 190 | 2.2 | –
3 | CC1=C(c2ccnc3ccccc23)SCC(=O)N1 [drawing 29] | – | – | – | 270
4 | CCC1SC(c2ccncc2)=C(C)NC1=O (stereo not shown) [2-ethyl-5-methyl-6-(4-pyridinyl)-2H-1,4-thiazin-3(4H)-one] | 925 ± 32 | 226 | 2.4 | 130
5 | CC1=C(c2ccncc2)SCC(=O)N1 [drawing 26] | – | 250 | 9.4 | –
6 | CC1=C(c2ccnc3ccccc23)SCC(=O)N1 [drawing 13] | 300 ± 125 | – | – | –
7 | CC1=C(c2ccncc2)SC(N2CCOCC2)C(=O)N1 (stereo not shown) | 207 ± 47 | – | – | –
8 | CC1=C(c2ccncc2)SC(C)C(=O)N1 (stereo not shown) [2,5-dimethyl-6-(4-pyridinyl)-2H-1,4-thiazin-3(4H)-one] | 780 ± 93 | 158 | 2 | 230
9 | CC1=C(c2ccncc2)SCC(=O)N1 [drawing 30] | – | – | – | 275
10 | CC1=C(c2ccncc2C=O)SCC(=O)N1 | 278 ± 56 | – | – | –
11 | CC1=C(c2ccnnc2)SCC(=O)N1 | 225 ± 123 | – | – | –
12 | CC1=C(c2ccncc2)SC(c2ccc(O)cc2)C(=O)N1 (stereo not shown) | 230 ± 92 | – | – | –
13 | CC1=C(c2ccncc2C#N)SCC(=O)N1 | 214 ± 56 | – | – | –
14 | CNC1SC(c2ccncc2)=C(C)NC1=O (stereo not shown) [5-methyl-2-methylamino-6-(4-pyridinyl)-2H-1,4-thiazin-3(4H)-one] | 233 ± 46 | – | – | –
